Assay results published in patent US20250250230A1, “HETEROCYCLIC COMPOUND” (TAKEDA PHARMACEUTICAL COMPANY LIMITED, priority 2022, published 2025).

These compounds were tested against T1, human orexin type 2 receptor (Homo sapiens, UniProt O43614) (assay: Measurement of orexin type 2 receptor agonist activity (calcium fluorescence, Fluo-4 AM, FDSS)). Conditions: test compound 3 μM; CHO cells expressing human OX2 receptor; DMSO = 0%, orexin A (human) = 100%.
T1 construct: expressed in transfected cells
T1 sequence (O43614 1-444): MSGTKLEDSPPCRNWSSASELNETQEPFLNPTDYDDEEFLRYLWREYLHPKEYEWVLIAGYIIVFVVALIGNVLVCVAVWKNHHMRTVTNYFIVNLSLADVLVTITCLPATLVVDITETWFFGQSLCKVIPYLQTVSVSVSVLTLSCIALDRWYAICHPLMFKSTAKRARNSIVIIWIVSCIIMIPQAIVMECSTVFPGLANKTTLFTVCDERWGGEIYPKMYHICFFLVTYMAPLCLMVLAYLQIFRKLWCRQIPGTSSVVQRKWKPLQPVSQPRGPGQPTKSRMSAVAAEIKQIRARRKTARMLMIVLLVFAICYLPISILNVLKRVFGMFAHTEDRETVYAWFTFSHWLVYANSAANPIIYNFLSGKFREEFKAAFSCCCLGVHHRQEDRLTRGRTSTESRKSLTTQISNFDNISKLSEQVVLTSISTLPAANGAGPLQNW
Format: cell-based
Summary of the method: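 Agonist response scaled between vehicle (0%) and human orexin A at 10 nM final (100%), from 2-min kinetic Fluo-4 fluorescence reads. Stable hOX2R CHO-K1 clone, dye-loaded in HBSS/20 mM HEPES/0.1% BSA with 1.25 mM probenecid before compound addition.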

OX2R agonist activity (3 μM, %)	Structure (SMILES)
98%	CCS(=O)(=O)NC[C@@H]1[C@H](O)CN1C(=O)[C@@H]1C[C@@]1(F)c1ccccc1-c1c(F)cccc1F [Example 374, N-({(2R,3R)-1-[(1S,2S)-2-(2′,6′-difluoro[1,1′-biphenyl]-2-yl)-2-fluorocyclopropane-1-carbonyl]-3-hydroxyazetidin-2-yl}methyl)ethanesulfonamide]
92%	CC[C@@H]1CN(C(=O)[C@@H]2C[C@@]2(F)c2ccccc2-c2c(F)cccc2F)[C@@H]1CNS(C)(=O)=O [Example 380, N-({(2S,3R)-1-[(1S,2S)-2-(2′,6′-difluoro[1,1′-biphenyl]-2-yl)-2-fluorocyclopropane-1-carbonyl]-3-ethylazetidin-2-yl}methyl)methanesulfonamide]
90%	CC[C@@H]1CN(C(=O)[C@@H]2C[C@@]2(F)c2ccccc2-c2c(F)cccc2F)[C@H]1CNS(C)(=O)=O [Example 381, N-({(2R,3R)-1-[(1S,2S)-2-(2′,6′-difluoro[1,1′-biphenyl]-2-yl)-2-fluorocyclopropane-1-carbonyl]-3-ethylazetidin-2-yl}methyl)methylsulfonamide]
96%	CCS(=O)(=O)NC[C@@H]1[C@@H](O)CN1C(=O)[C@@H]1C[C@@]1(F)c1ccccc1-c1c(F)cccc1F [Example 382, N-({(2R,3S)-1-[(1S,2S)-2-(2′,6′-difluoro[1,1′-biphenyl]-2-yl)-2-fluorocyclopropane-1-carbonyl]-3-hydroxyazetidin-2-yl}methyl)ethanesulfonamide]
72%	CO[C@@H]1CN(C(=O)[C@@H]2C[C@@]2(F)c2ccccc2-c2c(F)cccc2F)[C@@H]1CNS(C)(=O)=O [Example 383, N-({(2R,3R)-1-[(1S,2S)-2-(2′,6′-difluoro[1,1′-biphenyl]-2-yl)-2-fluorocyclopropane-1-carbonyl]-3-methoxyazetidin-2-yl}methyl)methanesulfonamide]
99%	CS(=O)(=O)NC[C@@H]1[C@H](CO)CN1C(=O)[C@@H]1C[C@@]1(F)c1ccccc1-c1c(F)cccc1F [Example 384, N-{[(2S,3R)-1-[(1S,2S)-2-(2′,6′-difluoro[1,1′-biphenyl]-2-yl)-2-fluorocyclopropane-1-carbonyl]-3-(hydroxymethyl)azetidin-2-yl]methyl}methanesulfonamide]
98%	CS(=O)(=O)NC[C@@H]1[C@H](F)CN1C(=O)[C@@H]1C[C@@]1(F)c1ccccc1-c1c(F)cccc1F [Example 390, N-({(2R,3R)-1-[(1S,2S)-2-(2′,6′-difluoro[1,1′-biphenyl]-2-yl)-2-fluorocyclopropane-1-carbonyl]-3-fluoroazetidin-2-yl}methyl)methanesulfonamide]
97%	CS(=O)(=O)NC[C@H]1[C@H](CO)CN1C(=O)[C@@H]1C[C@@]1(F)c1ccccc1-c1c(F)cccc1F [Example 391, N-{[(2R,3R)-1-[(1S,2S)-2-(2′,6′-difluoro[1,1′-biphenyl]-2-yl)-2-fluorocyclopropane-1-carbonyl]-3-(hydroxymethyl)azetidin-2-yl]methyl}methanesulfonamide]

Second part, the compound before the results:

Structure (SMILES)	OX2R agonist activity (3 μM, %)
CS(=O)(=O)NC[C@H]1CCN1C(=O)[C@@H]1C[C@@]1(F)c1ccccc1-c1c(F)cccc1F [Example 371, N-({(2R)-1-[(1S,2S)-2-(2′,6′-difluoro[1,1′-biphenyl]-2-yl)-2-fluorocyclopropane-1-carbonyl]azetidin-2-yl}methyl)methanesulfonamide]	103%
C[C@@H]1CN(C(=O)[C@@H]2C[C@@]2(F)c2ccccc2-c2c(F)cccc2F)C[C@@H](CNS(C)(=O)=O)O1 [Example 372, N-({(2S,6R)-4-[(1S,2S)-2-(2′,6′-difluoro[1,1′-biphenyl]-2-yl)-2-fluorocyclopropane-1-carbonyl]-6-methylmorpholin-2-yl}methyl)methanesulfonamide]	95%
COCC1(NS(C)(=O)=O)CCN(C(=O)[C@@H]2C[C@@]2(F)c2ccccc2-c2c(F)cccc2F)C1 (stereo partly drawn) [Example 373, N-[(3R)-1-[(1S,2S)-2-(2′,6′-difluoro[1,1′-biphenyl]-2-yl)-2-fluorocyclopropane-1-carbonyl]-3-(methoxymethyl)pyrrolidin-3-yl]methanesulfonamide, or N-[(3S)-1-[(1S,2S)-2-(2′,6′-difluoro[1,1′-biphenyl]-2-yl)-2-fluorocyclopropane-1-carbonyl]-3-(methoxymethyl)pyrrolidin-3-yl]methanesulfonamide]	95%
CC1(NS(C)(=O)=O)CN(C(=O)[C@@H]2C[C@@]2(F)c2ccccc2-c2c(F)cccc2F)CC1(F)F (stereo partly drawn) [Example 375, N-{(3R)-1-[(1S,2S)-2-(2′,6′-difluoro[1,1′-biphenyl]-2-yl)-2-fluorocyclopropane-1-carbonyl]-4,4-difluoro-3-methylpyrrolidin-3-yl}methanesulfonamide, or N-{(3S)-1-[(1S,2S)-2-(2′,6′-difluoro[1,1′-biphenyl]-2-yl)-2-fluorocyclopropane-1-carbonyl]-4,4-difluoro-3-methylpyrrolidin-3-yl}methanesulfonamide]	92%
CS(=O)(=O)NC1C2CN(C(=O)[C@@H]3C[C@@]3(F)c3ccccc3-c3c(F)cccc3F)CC2CC1(F)F (stereo partly drawn) [Example 377, N-{(3aR,4S,6aS)-2-[(1S,2S)-2-(2′,6′-difluoro[1,1′-biphenyl]-2-yl)-2-fluorocyclopropane-1-carbonyl]-5,5-difluorooctahydrocyclopenta[c]pyrrol-4-yl}methanesulfonamide, or N-{(3aS,4R,6aR)-2-[(1S,2S)-2-(2′,6′-difluoro[1,1′-biphenyl]-2-yl)-2-fluorocyclopropane-1-carbonyl]-5,5-difluorooctahydrocyclopenta[c]pyrrol-4-yl}methanesulfonamide]	93%
CS(=O)(=O)N[C@@H]1CN(C(=O)C2CC2c2c(-c3c(F)cccc3F)csc2F)CCC1(F)F (stereo partly drawn) [Example 378, N-[(3R)-1-{(1R,2R)-2-[4-(2,6-difluorophenyl)-2-fluorothiophen-3-yl]cyclopropane-1-carbonyl}-4,4-difluoropiperidin-3-yl]methanesulfonamide, or N-[(3R)-1-{(1S,2S)-2-[4-(2,6-difluorophenyl)-2-fluorothiophen-3-yl]cyclopropane-1-carbonyl}-4,4-difluoropiperidin-3-yl]methanesulfonamide]	103%
CCC(NS(C)(=O)=O)[C@@H]1CCN1C(=O)[C@@H]1C[C@@]1(F)c1ccccc1-c1c(F)cccc1F (stereo partly drawn) [Example 379, N-[(1R)-1-{(2S)-1-[(1S,2S)-2-(2′,6′-difluoro[1,1′-biphenyl]-2-yl)-2-fluorocyclopropane-1-carbonyl]azetidin-2-yl}propyl]methanesulfonamide, or N-[(1S)-1-{(2S)-1-[(1S,2S)-2-(2′,6′-difluoro[1,1′-biphenyl]-2-yl)-2-fluorocyclopropane-1-carbonyl]azetidin-2-yl}propyl]methanesulfonamide]	86%
CS(=O)(=O)N[C@@H](CO)C1CCN1C(=O)[C@@H]1C[C@@]1(F)c1ccccc1-c1c(F)cccc1F (stereo partly drawn) [Example 385, N-[(1R)-1-{(2R)-1-[(1S,2S)-2-(2′,6′-difluoro[1,1′-biphenyl]-2-yl)-2-fluorocyclopropane-1-carbonyl]azetidin-2-yl}-2-hydroxyethyl]methanesulfonamide, or N-[(1R)-1-{(2S)-1-[(1S,2S)-2-(2′,6′-difluoro[1,1′-biphenyl]-2-yl)-2-fluorocyclopropane-1-carbonyl]azetidin-2-yl}-2-hydroxyethyl]methanesulfonamide]	95%
C[C@@H]1CN(C(=O)[C@@H]2C[C@@]2(F)c2ccc(F)cc2-c2c(F)cccc2F)[C@@H]1CNS(C)(=O)=O [Example 386, N-({(2S,3R)-1-[(1S,2S)-2-fluoro-2-(2′,5,6′-trifluoro[1,1′-biphenyl]-2-yl)cyclopropane-1-carbonyl]-3-methylazetidin-2-yl}methyl)methanesulfonamide]	98%
C[C@H](NS(=O)(=O)C1CC1)[C@@H]1CCN1C(=O)[C@@H]1C[C@@]1(F)c1ccccc1-c1c(F)cccc1F [Example 387, N-[(1S)-1-{(2S)-1-[(1S,2S)-2-(2′,6′-difluoro[1,1′-biphenyl]-2-yl)-2-fluorocyclopropane-1-carbonyl]azetidin-2-yl}ethyl]cyclopropanesulfonamide]	99%
C[C@H](NS(=O)(=O)C1(C)CC1)[C@@H]1CCN1C(=O)[C@@H]1C[C@@]1(F)c1ccccc1-c1c(F)cccc1F [Example 388, N-[(1S)-1-{(2S)-1-[(1S,2S)-2-(2′,6′-difluoro[1,1′-biphenyl]-2-yl)-2-fluorocyclopropane-1-carbonyl]azetidin-2-yl}ethyl]-1-methylcyclopropane-1-sulfonamide]	98%
CC(C)S(=O)(=O)N[C@@H](C)[C@@H]1CCN1C(=O)[C@@H]1C[C@@]1(F)c1ccccc1-c1c(F)cccc1F [Example 389, N-[(1S)-1-{(2S)-1-[(1S,2S)-2-(2′,6′-difluoro[1,1′-biphenyl]-2-yl)-2-fluorocyclopropane-1-carbonyl]azetidin-2-yl}ethyl]propane-2-sulfonamide]	97%
